In ChEMBL document CHEMBL1681738, “Efficient synthesis of triazole moiety-containing nucleotide analogs and their inhibitory effects on a malic enzyme” (Bioorg Med Chem Lett, 2011):
Activity calls are given as the source filed them. The calls are words filed in the database; no cut-off is given here.

Target: NAD-dependent malic enzyme (Escherichia coli K12) (UniProt P26616)
Experiment: Inhibition of Escherichia coli K-12 recombinant NAD-dependent malic enzyme at 0.2 mM

NAD-dependent malic enzyme (Escherichia coli K12), sequence (P26616 whole entry, looked up): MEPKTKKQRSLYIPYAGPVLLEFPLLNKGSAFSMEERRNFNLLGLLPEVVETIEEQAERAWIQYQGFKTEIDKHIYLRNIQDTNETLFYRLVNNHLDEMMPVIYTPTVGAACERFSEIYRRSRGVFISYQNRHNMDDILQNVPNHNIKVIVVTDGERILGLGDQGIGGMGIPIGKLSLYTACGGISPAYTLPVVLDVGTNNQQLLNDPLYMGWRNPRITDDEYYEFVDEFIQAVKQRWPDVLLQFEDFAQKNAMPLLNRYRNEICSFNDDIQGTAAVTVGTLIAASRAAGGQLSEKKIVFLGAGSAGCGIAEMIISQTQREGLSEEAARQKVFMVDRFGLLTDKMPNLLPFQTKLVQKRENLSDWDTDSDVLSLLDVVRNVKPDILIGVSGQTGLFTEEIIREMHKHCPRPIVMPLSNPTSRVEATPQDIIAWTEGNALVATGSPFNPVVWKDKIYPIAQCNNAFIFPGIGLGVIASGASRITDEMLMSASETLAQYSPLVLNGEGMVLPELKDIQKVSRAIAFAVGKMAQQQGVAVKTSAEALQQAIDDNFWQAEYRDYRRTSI

Structure (SMILES)	inhibition
O=P(O)(O)OC[C@H]1O[C@@H](n2cc(-c3ccccc3)nn2)[C@H](O)[C@@H]1O	Active
O=P(O)(O)OC[C@H]1O[C@@H](n2cc(CCO)nn2)[C@H](O)[C@@H]1O	Active
O=C(NCc1cn([C@@H]2O[C@H](COP(=O)(O)O)[C@@H](O)[C@H]2O)nn1)c1ccccc1	Active
COc1ccc(-c2cn([C@@H]3O[C@H](COP(=O)(O)O)[C@@H](O)[C@H]3O)nn2)cc1	Active
O=P(O)(O)OC[C@H]1O[C@@H](n2cc(-c3cccc4ccccc34)nn2)[C@H](O)[C@@H]1O	Active
CC(=O)NCc1cn([C@@H]2O[C@H](COP(=O)(O)O)[C@@H](O)[C@H]2O)nn1	Active
O=P(O)(O)OC[C@H]1O[C@@H](n2cc(-c3ccc(F)cc3)nn2)[C@H](O)[C@@H]1O	Active

The next lines start with the values.

inhibition	Structure (SMILES)
Active	Nc1ccccc1-c1cn([C@@H]2O[C@H](COP(=O)(O)O)[C@@H](O)[C@H]2O)nn1
Active	O=P(O)(O)OC[C@H]1O[C@@H](n2cc(-c3ccccc3F)nn2)[C@H](O)[C@@H]1O
Active	O=P(O)(O)OC[C@H]1O[C@@H](n2cc(-c3ccccc3C(F)(F)F)nn2)[C@H](O)[C@@H]1O
Active	Cc1ccccc1-c1cn([C@@H]2O[C@H](COP(=O)(O)O)[C@@H](O)[C@H]2O)nn1
